Results from patent US5728829A, “Process of preparing benzodiazepine compounds useful as antagonists of CCK or of gastrine” (Ferring-Research Limited, priority 1993, dated 1998).
Like-named read-outs stand apart in the source and are kept apart here.

What was measured:
[1] = target: T1, CCK-B receptor (Rattus norvegicus, UniProt P30553); assay: Measurement of binding affinity for CCK-B receptors ([125I]BH-CCK-8, rat brain membranes); set-up: species or system SD rat
T1 construct: the whole brain was immediately excised from each of the rats and homogenized; from tissue; host or cells: SD rat whole brain membranes
T1 sequence (P30553 1-452): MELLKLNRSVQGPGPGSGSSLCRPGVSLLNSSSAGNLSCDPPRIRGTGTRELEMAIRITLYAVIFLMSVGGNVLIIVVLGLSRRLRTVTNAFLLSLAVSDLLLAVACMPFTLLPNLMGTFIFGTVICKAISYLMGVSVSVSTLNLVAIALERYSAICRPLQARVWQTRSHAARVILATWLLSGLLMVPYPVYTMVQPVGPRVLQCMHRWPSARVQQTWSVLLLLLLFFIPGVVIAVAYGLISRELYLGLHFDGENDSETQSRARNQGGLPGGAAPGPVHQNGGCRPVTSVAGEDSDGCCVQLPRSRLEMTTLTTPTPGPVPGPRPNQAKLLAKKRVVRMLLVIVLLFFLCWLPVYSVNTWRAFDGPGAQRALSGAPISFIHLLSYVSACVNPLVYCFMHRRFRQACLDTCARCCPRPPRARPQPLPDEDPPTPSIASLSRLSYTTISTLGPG
Experimental: About 100 SD rats were decapitated without anaesthesia, the whole brain was immediately excised from each of the rats and homogenized in 10-fold volume of 0.32M aqueous solution of sucrose by the use of a Teflon-coated homogenizer, the homogenate thus obtained was centrifuged for ten minutes at 900 G by the use of a cooled centrifuge, and the supernatant was further centrifuged for 15 minutes at 11500 G. The precipitate thus obtained was dispersed in 50 mM Tris-HCl buffer (pH 7.4) containing 0.08% Triton X-100, this suspension was allowed to stand for 30 minutes and again centrifuged for 15 minutes at 11500 G, the precipitate thus obtained was washed twice with 5 mM Tris-HCl buffer and twice with 50 mM Tris-HCl buffer in that order with centrifugal separation, the washed precipitate was suspended in 50 mM Tris-HCl buffer, and the suspension thus obtained was stored at -80° C. until the membrane preparation was required.
The membrane preparations were warmed to room temperature, diluted with 10 mM HEPES buffer (containing 130 mM NaCl, 5 mM MgCl2, 1 mM EGTA and 0.25 mg/ml bacitracin; pH 6.5) and incubated at 25° C. for 120 minutes in the presence of [^125 I]BH-CCK-8 and the test compound, then separated by suction filtration. Non-specific binding was determined in the presence of 1 μM CCK-8. The amount of labelled ligand bound to the receptor was measured by the use of a γ-counter, IC50 values were determined, being that concentration of test compound required to inhibit specific binding by 50%.

[2] = target: T2, CCK-A receptor (Rattus norvegicus, UniProt P30551); assay: Selectivity for the CCK-B receptor by comparison with binding to the CCK-A receptor in rats ([3H]L-364,718, pancreas membranes); set-up: species or system SD rat; details: table 2; for A/B Ratio: IC50 (CCK-A)/IC50 (CCK-B): higher value = better CCK-B selectivity; for IC50: rat pancreas membranes, [3H]L-364,718, 37 °C, 30 min, read-out: Receptor binding affinity IC50, CCK-A
T2 construct: The pancreas of an SD rat was homogenized; from tissue; host or cells: SD rat pancreas membranes
T2 sequence (P30551 1-444): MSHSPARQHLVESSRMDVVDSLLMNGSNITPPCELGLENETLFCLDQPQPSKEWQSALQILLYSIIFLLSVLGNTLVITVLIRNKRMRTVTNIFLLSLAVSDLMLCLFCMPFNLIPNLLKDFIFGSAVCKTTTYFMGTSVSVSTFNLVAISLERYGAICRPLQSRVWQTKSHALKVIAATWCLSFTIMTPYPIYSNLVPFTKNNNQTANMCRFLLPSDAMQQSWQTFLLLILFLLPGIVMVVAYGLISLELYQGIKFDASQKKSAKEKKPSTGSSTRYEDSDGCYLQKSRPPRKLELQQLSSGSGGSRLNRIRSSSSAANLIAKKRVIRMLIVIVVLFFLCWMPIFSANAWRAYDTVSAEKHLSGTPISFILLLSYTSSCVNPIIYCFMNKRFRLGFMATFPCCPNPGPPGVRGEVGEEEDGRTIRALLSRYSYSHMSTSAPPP
Experimental: Determination of selectivity for the CCK-B receptor by comparison with binding to the CCK-A receptor in rats
The pancreas of an SD rat was homogenized in a 20-fold volume of 50 mM Tris-HCl buffer (pH 7.7) by the use of a Polytrone-type homogenizer, the homogenate was twice centrifuged for 10 minutes at 50000 G by the use of an ultra-centrifuge, the precipitate thus obtained was suspended in a 40-fold volume of 50 mM Tris-HCl buffer (containing 0.2% BSA, 5 mM MgCl2, 0.1 mg/ml bacitracin and 5 mM DTF; pH 7.7), and the suspension was stored at -80° C. until the membrane preparations were required.
The membrane preparations were then warmed to room temperature, diluted 1:10 with the buffer and incubated at 37° C. for 30 minutes in the presence of [^3 H]L-364,718 and the test compound then separated by suction filtration. Non-specific binding was determined in the presence of 1 μM L-364,718.
A high affinity for the CCK-A receptor in a CCK-B/gastrin antagonist is thought to be undesirable as it may lead to side-effects such as cholestasis and gall stone formation during therapy. Therefore it is preferable for the therapeutic agent to be selective for the CCK-B receptor. This selectivity is expressed by the ratio IC50 (CCK-A)/IC50 (CCK-B); the higher the value of this ratio the better is the selectivity.

[3] = tested on: pentagastrin-stimulated gastric acid secretion; assay: Measurement of inhibition of pentagastrin-stimulated gastric acid secretion in rat; assay type: in vivo; details: intravenous; for % Inhibition (maximum inhibition of gastric acid secretion): at 0.1 μmol/kg, mean for 3-5 animals; for ED50: read-out: ED50 (dose reducing secreted gastric acid to 50% of the maximum level), table 3, "Relative ED50 values", anaesthetised rat, pentagastrin 15 μg/Kg/hr
Text: Measurement of inhibition of pentagastrin-stimulated gastric acid secreation in rat
A cannula was inserted into the trachea of a rat anaesthetised with urethane (intraperitoneally administered, 1.25 g/Kg), its abdominal wall was incised to expose the gastric and duodenal portions, and a polyethylene cannula was set in the anterior stomach after ligation of the cardia. The duodenum was then subjected to slight section, a polyethylene cannnula was inserted from the incised portion toward the stomach, and the pylorus was ligated to fix the cannula.
Physiological saline (with pH adjusted to 7.0) was perfused from the anterior stomach toward the pylorus at a rate of 3 ml/min, and the gastric-acid secreation was measured by continuous titration of the perfusate by the use of a pH-stat (AUT-201; product of Toa Electronics, Ltd.). The continuous titration was carried out by using 25 mM NaOH solution until the pH reached 7.0, and the result was expressed as the amount of gastric acid secreted for every 10 minutes (μEq /10 min.). Pentagastrin was intravenously administered at a rate of 15 μg/Kg/hr.
The secretion of gastric acid increased upon administration of pentagastrin, reaching the maximum level after 60 minutes and stably maintaining this level after that.

[4] = table 1, rat brain membranes, [125I]BH-CCK-8, 25 °C, 120 min, read-out: IC50 (CCK-B receptor binding)
[5] = table 2, rat brain membranes, [125I]BH-CCK-8, read-out: Receptor binding affinity IC50, CCK-B

Structure (SMILES)	IC50 [1, 4]	IC50 [1]	A/B Ratio: IC50 (CCK-A)/IC50 (CCK-B) [2]	IC50 [2]	% Inhibition (maximum inhibition of gastric acid secretion) [3]	ED50 [3]	IC50 [1, 5]
CN(C(=O)OC(C)(C)C)c1cccc(C(=O)O)c1 [Example 50, 3-(N-tert-Butoxylcarbonyl-N-methylamino)benzoic acid]	0.88 nM	–	–	–	–	–	–
Cc1cccc(NC(=O)NC2N=C(c3nccs3)c3ccccc3N(CC(=O)C(C)(C)C)C2=O)c1 (racemic) [Example 3, N-((3RS)-1-tert-Butylcarbonylmethyl-2,3-dihydro-2-oxo-5-(2-thiazolyl)-1H-1,4-benzodiazepin-3-yl)-N'-(3-methylphenyl)urea]	–	0.8 nM	540	433 nM	57.6%	–	–
CNc1cccc(NC(=O)NC2N=C(c3ccccn3)c3ccccc3N(CC(=O)C(C)(C)C)C2=O)c1 (racemic) [Example 26, N-((3RS)-1-tert-Butylcarbonylmethyl-2,3-dihydro-2-oxo-5-(2-pyridyl)-1H-1,4-benzodiazepin-3-yl)-N'-(3-(methylamino)phenyl)urea]	1.4 nM	–	–	–	–	–	–
Cc1cccc(NC(=O)NC2N=C(c3nccn3C)c3ccccc3N(CC(=O)C(C)(C)C)C2=O)c1 (racemic) [Example 1, N-((3RS)-1-tert-Butylcarbonylmethyl-2,3-dihydro-2-oxo-5-(2-(1-methyl)imidazolyl)-1H-1,4-benzodiazepin-3-yl)-N'-(3-methylphenyl)urea]	–	–	187	–	48.9%	–	–
Cc1cccc(NC(=O)N[C@@H]2N=C(c3ccccn3)c3ccccc3N(CC(=O)C(C)(C)C)C2=O)c1 [Example 42]	0.44 nM	–	–	–	–	0.016 µmol/kg	–
CN(C)c1cccc(NC(=O)NC2N=C(c3nccs3)c3ccccc3N(CC(=O)C(C)(C)C)C2=O)c1 (racemic) [Example 4, N-((3RS)-1-tert-Butylcarbonylmethyl-2,3-dihydro-2-oxo-5-(2-thiazolyl)-1H-1,4-benzodiazepin-3-yl)-N'-(3-dimethylaminophenyl)urea]	–	0.63 nM	700	441 nM	55.2%	–	–
CN(C)c1cccc(NC(=O)NC2N=C(c3ncc[nH]3)c3ccccc3N(CC(=O)C(C)(C)C)C2=O)c1 (racemic) [Example 8B, N-((3RS)-1-tert-Butylcarbonylmethyl-2,3-dihydro-5-(2-imidazolyl)-2-oxo-1H-1,4-benzodiazepin-3-yl)-N'-(3-dimethylaminophenyl)urea]	–	55.3 nM	–	–	–	–	–
Cc1cccc(NC(=O)NC2N=C(c3cnccn3)c3ccccc3N(CC(=O)C(C)(C)C)C2=O)c1 (racemic) [Example 5, N-((3RS)-1-tert-Butylcarbonylmethyl-2,3-dihydro-2-oxo-5-(2-pyrazinyl)-1H-1,4-benzodiazepin-3-yl)-N'-(3-methylphenyl)urea]	–	–	–	–	55.4%	–	–
CN(C)c1cccc(NC(=O)NC2N=C(c3cnccn3)c3ccccc3N(CC(=O)C(C)(C)C)C2=O)c1 (racemic) [Example 6, N-((3RS)-1-tert-Butylcarbonylmethyl-2,3-dihydro-2-oxo-5-(2-pyrazinyl)-1H-1,4-benzodiazepin-3-yl)-N'-(3-dimethylaminophenyl)urea]	–	0.22 nM	–	–	61.9%	–	–
CN(C)c1cccc(NC(=O)NC2N=C(c3nccn3C)c3ccccc3N(CC(=O)C(C)(C)C)C2=O)c1 (racemic) [Example 2, N-((3RS)-1-tert-Butylcarbonylmethyl-2,3-dihydro-2-oxo-5-(2-(1-methyl)imidazolyl)-1H-1,4-benzodiazepin-3-yl)-N'-(3-dimethylaminophenyl)urea]	–	2.08 nM	238	495 nM	47.4%	–	–
CNc1cccc(NC(=O)N[C@@H]2N=C(c3ccccn3)c3ccccc3N(CC(=O)C(C)(C)C)C2=O)c1 [Example 52, N(-((3R)-1-tert-Butylcarbonylmethyl-2,3-dihydro-2-oxo-5-(2-pyridyl)-1H-1,4-benzodiazepin-3-yl)-N'-3-methylaminophenyl)urea]	–	–	5020	502 nM	–	–	0.1 nM
CN(C)c1cccc(NC(=O)N[C@@H]2N=C(c3ccccn3)c3ccccc3N(CC(=O)C(C)(C)C)C2=O)c1 [Example 22, N-((3R)-1-tert-Butylcarbonylmethyl-2,3-dihydro-2-oxo-5-(2-pyridyl)-1H-1,4-benzodiazepin-3-yl)-N'-((3-dimethylamino)phenyl)urea]	0.2 nM	–	565	113 nM	–	0.011 µmol/kg	0.2 nM
